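These data come from cells grown in 96-well plates and exposed to compound for 48 hours at five concentrations. At the GI50, growth is halved.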 Calls of active or inactive are those of the source. Rule as the data show it: active = GI50 up to about 1.1 µM and inactive = higher.
Columns and labels:
Test in all cases: NCI anticancer screen, dose series, 48 h
[1] = system: CAKI-1
[2] = system: UACC-257
[3] = system: HL-60
[4] = system: UACC-62
[5] = system: RXF 393
[6] = system: ACHN
[7] = system: CCRF-CEM
[8] = system: COLO 205
[9] = system: DU-145
[10] = system: SF-295
[11] = system: SR
[12] = system: SNB-75
[13] = system: SK-MEL-5
[14] = system: HOP-62
[15] = system: SK-MEL-2
[16] = system: SK-MEL-28
[17] = system: IGROV-1
[18] = system: SF-539
[19] = system: OVCAR-3
[20] = system: HCC 2998

Structure (SMILES): CCOc1ccncc1[N+](=O)[O-]
- GI50 [1]: > 100 µM (inactive)
- GI50 [2]: > 100 µM (inactive)
- GI50 [3]: > 100 µM (inactive)
- GI50 [4]: > 100 µM (inactive)
- GI50 [5]: > 100 µM (inactive)
- GI50 [6]: > 100 µM (inactive)
- GI50 [7]: > 100 µM (inactive)
- GI50 [8]: > 10 µM (inactive)
- GI50 [9]: > 100 µM (inactive)
- GI50 [10]: > 100 µM (inactive)
- GI50 [11]: > 100 µM (inactive)
- GI50 [12]: > 100 µM (inactive)
- GI50 [13]: > 100 µM (inactive)
- GI50 [14]: > 100 µM (inactive)
- GI50 [15]: > 100 µM (inactive)
- GI50 [16]: > 100 µM (inactive)
- GI50 [17]: > 100 µM (inactive)
- GI50 [18]: > 100 µM (inactive)

Structure (SMILES): CCCCOC(=O)C1CN2C=CC=NC2=NC1(C(F)(F)F)C(F)(F)F (centres undefined)
- GI50 [1]: > 100 µM (inactive)
- GI50 [2]: > 100 µM (inactive)
- GI50 [3]: > 100 µM (inactive)
- GI50 [4]: > 100 µM (inactive)
- GI50 [5]: > 100 µM (inactive)
- GI50 [6]: > 100 µM (inactive)
- GI50 [7]: > 100 µM (inactive)
- GI50 [8]: > 100 µM (inactive)
- GI50 [19]: > 100 µM (inactive)
- GI50 [9]: > 100 µM (inactive)
- GI50 [10]: > 100 µM (inactive)
- GI50 [12]: > 100 µM (inactive)
- GI50 [13]: > 100 µM (inactive)
- GI50 [14]: > 100 µM (inactive)
- GI50 [20]: > 100 µM (inactive)
- GI50 [15]: > 100 µM (inactive)
- GI50 [16]: > 100 µM (inactive)
- GI50 [17]: > 100 µM (inactive)
- GI50 [18]: > 100 µM (inactive)

Structure (SMILES): O=S(=O)(O)c1c(/N=N/c2c(O)ccc3ccccc23)ccc2ccccc12
- GI50 [1]: > 100 µM (inactive)
- GI50 [2]: > 100 µM (inactive)
- GI50 [4]: > 100 µM (inactive)
- GI50 [5]: > 100 µM (inactive)
- GI50 [7]: 48.4 µM (inactive)
- GI50 [8]: 70.1 µM (inactive)
- GI50 [19]: > 100 µM (inactive)
- GI50 [9]: > 100 µM (inactive)
- GI50 [10]: > 100 µM (inactive)
- GI50 [11]: > 100 µM (inactive)
- GI50 [12]: > 100 µM (inactive)
- GI50 [13]: > 100 µM (inactive)
- GI50 [14]: > 100 µM (inactive)
- GI50 [15]: > 100 µM (inactive)
- GI50 [16]: > 100 µM (inactive)
- GI50 [17]: 79.8 µM (inactive)

Structure (SMILES): CS(=O)(=O)Nc1ccc(Nc2ccnc3ccc4[nH]ccc4c23)cc1
- GI50 [1]: 27.7 µM (inactive)
- GI50 [2]: 15.6 µM (inactive)
- GI50 [3]: 21.4 µM (inactive)
- GI50 [4]: 14.3 µM (inactive)
- GI50 [5]: 14 µM (inactive)
- GI50 [6]: 21.5 µM (inactive)
- GI50 [7]: 4.35 µM (inactive)
- GI50 [8]: 9.1 µM (inactive)
- GI50 [19]: 10.3 µM (inactive)
- GI50 [9]: 9.93 µM (inactive)
- GI50 [10]: 24.5 µM (inactive)
- GI50 [13]: 11.7 µM (inactive)
- GI50 [14]: 13.9 µM (inactive)
- GI50 [20]: 4.98 µM (inactive)
- GI50 [15]: 10.3 µM (inactive)
- GI50 [16]: 15.8 µM (inactive)
- GI50 [17]: 20 µM (inactive)

Structure (SMILES): CN(C(=O)OC(C)(C)C)[C@H]1CCCC[C@H]1N1CCCC1
- GI50 [1]: > 100 µM (inactive)
- GI50 [2]: 53.7 µM (inactive)
- GI50 [3]: 5.81 µM (inactive)
- GI50 [4]: > 100 µM (inactive)
- GI50 [6]: > 100 µM (inactive)
- GI50 [7]: 0.0129 µM (active)
- GI50 [8]: > 100 µM (inactive)
- GI50 [19]: > 100 µM (inactive)
- GI50 [9]: > 100 µM (inactive)
- GI50 [10]: > 100 µM (inactive)
- GI50 [11]: > 100 µM (inactive)
- GI50 [13]: > 100 µM (inactive)
- GI50 [14]: > 100 µM (inactive)
- GI50 [15]: > 100 µM (inactive)
- GI50 [16]: > 100 µM (inactive)
- GI50 [17]: > 100 µM (inactive)
- GI50 [18]: > 100 µM (inactive)

Structure (SMILES): CC(=O)Oc1ccc(-c2cc3ccccc3oc2=O)cc1
- GI50 [2]: > 100 µM (inactive)
- GI50 [3]: 24.8 µM (inactive)
- GI50 [6]: > 100 µM (inactive)
- GI50 [7]: > 100 µM (inactive)
- GI50 [8]: > 100 µM (inactive)
- GI50 [19]: 6.27 µM (inactive)
- GI50 [9]: > 100 µM (inactive)
- GI50 [10]: 43.9 µM (inactive)
- GI50 [11]: 56.9 µM (inactive)
- GI50 [12]: 56.6 µM (inactive)
- GI50 [14]: > 100 µM (inactive)
- GI50 [20]: > 100 µM (inactive)
- GI50 [15]: > 100 µM (inactive)
- GI50 [16]: > 100 µM (inactive)
- GI50 [18]: > 100 µM (inactive)

Structure (SMILES): COc1ccc2c(c1)-c1nc(=S)n(CCN(C)C)c3ccc([N+](=O)[O-])c(c13)N2
- GI50 [1]: 1.49 µM (inactive)
- GI50 [2]: 1 µM (active)
- GI50 [4]: 10.6 µM (inactive)
- GI50 [5]: 1.1 µM (active)
- GI50 [6]: 0.345 µM (active)
- GI50 [7]: 1.09 µM (active)
- GI50 [8]: 0.865 µM (active)
- GI50 [19]: 1.23 µM (inactive)
- GI50 [9]: 0.923 µM (active)
- GI50 [10]: 0.794 µM (active)
- GI50 [11]: 0.419 µM (active)
- GI50 [12]: 1.3 µM (inactive)
- GI50 [13]: 3.65 µM (inactive)
- GI50 [14]: 0.594 µM (active)
- GI50 [20]: 0.809 µM (active)
- GI50 [15]: 7.31 µM (inactive)
- GI50 [16]: 1.44 µM (inactive)
- GI50 [17]: 0.832 µM (active)
- GI50 [18]: 0.824 µM (active)

Structure (SMILES): C[N+]1(CCCl)CC[N+](C)(CCCl)CC1 (centres undefined)
- GI50 [1]: > 100 µM (inactive)
- GI50 [2]: > 100 µM (inactive)
- GI50 [3]: 28.8 µM (inactive)
- GI50 [4]: > 100 µM (inactive)
- GI50 [5]: > 100 µM (inactive)
- GI50 [6]: > 100 µM (inactive)
- GI50 [7]: > 100 µM (inactive)
- GI50 [8]: > 100 µM (inactive)
- GI50 [19]: > 100 µM (inactive)
- GI50 [9]: > 100 µM (inactive)
- GI50 [10]: > 100 µM (inactive)
- GI50 [12]: 42.1 µM (inactive)
- GI50 [13]: > 100 µM (inactive)
- GI50 [14]: > 100 µM (inactive)
- GI50 [15]: > 100 µM (inactive)
- GI50 [16]: > 100 µM (inactive)
- GI50 [17]: > 100 µM (inactive)
- GI50 [18]: > 100 µM (inactive)

From ChEMBL document CHEMBL1201862, “PubChem BioAssay data set” (2004)
